Assay results: ChEMBL document CHEMBL1121833, “Structure--sweetness relationship of L-aspartyl dipeptide analogues. A receptor site topology” (J Med Chem, 1981)

Assay: Sweet potency as logarithm of sweet potency (log SP) relative to sucrose
Format: functional

Row | Structure (SMILES) | Log SP
1 | CC(C)OC(=O)C[C@H](C)NC(=O)[C@H](N)CC(=O)O | 0.84
2 | CCC[C@@H](COC(C)=O)NC(=O)[C@H](N)CC(=O)O | 0.66
3 | CCCOC(=O)[C@H](CCC)NC(=O)[C@H](N)CC(=O)O | 1.56
4 | CCC(=O)OC[C@H](COC)NC(=O)[C@H](N)CC(=O)O | 1.21
5 | C[C@@H](CC(=O)OC(C)(C)C)NC(=O)[C@H](N)CC(=O)O | 0.68
6 | CCC(=O)OC[C@H](CC)NC(=O)[C@H](N)CC(=O)O | 1.48
7 | CC(C)CC[C@H](C)NC(=O)[C@H](N)CC(=O)O | 1.85
8 | COC(=O)[C@@H](CCCCNC(C)=O)NC(=O)[C@H](N)CC(=O)O | 0.27
9 | C[C@@H](O)[C@@H](NC(=O)[C@@H](N)CC(=O)O)C(=O)OC1CCCCC1 | 1.44
10 | COC(=O)[C@@H](CC(=O)OC(C)(C)C)NC(=O)[C@H](N)CC(=O)O | 1.3
11 | CCC[C@@H](NC(=O)[C@H](N)CC(=O)O)C(=O)OC | 0.46
12 | CC(C)OC(=O)CCNC(=O)[C@H](N)CC(=O)O | 0.7
13 | CC(C)[C@@H](COC(=O)C1CCC1)NC(=O)[C@H](N)CC(=O)O | 1.06
14 | COC(=O)C(NC(=O)[C@@H](N)CC(=O)O)C(=O)OC1CC2CCC1(C)C2(C)C (stereo partly drawn) | 3.16
15 | C[C@@H](Cc1ccc(F)cc1)NC(=O)[C@H](N)CC(=O)O | 1.5
16 | COC(=O)[C@H](NC(=O)[C@H](N)CC(=O)O)C(=O)OC(C)(C)C | 2.03
17 | CCCOC(=O)[C@H](NC(=O)[C@@H](N)CC(=O)O)[C@@H](C)O | 2.08
18 | CC(C)OC(=O)[C@@H](NC(=O)[C@H](N)CC(=O)O)C(C)C | 2.15
19 | CCOC(=O)C[C@H](C)NC(=O)[C@H](N)CC(=O)O (stereo in doubt; 128) | 1.16
20 | CC(C)(Cc1ccccc1)NC(=O)[C@H](N)CC(=O)O | 1.19
21 | CCCOC(=O)CNC(=O)[C@H](N)CC(=O)O | 0.98
22 | CCCCOC(=O)[C@H](C)NC(=O)[C@H](N)CC(=O)O | 0.9
23 | CCOC(=O)[C@H](NC(=O)[C@H](N)CC(=O)O)C(=O)OC1CCCCC1 | 2.68

Row | Structure (SMILES) | Log SP
24 | CCCCCOC(=O)[C@H](C)NC(=O)[C@H](N)CC(=O)O | 0.68
25 | N[C@H](CC(=O)O)C(=O)NCCC(=O)OC1CCCC1 | 1.16
26 | N[C@H](CC(=O)O)C(=O)NCCc1ccc(F)cc1 | 0.57
27 | CC(CNC(=O)[C@H](N)CC(=O)O)C(=O)OC1CCCC1 (stereo partly drawn) | 0.88
28 | CCCC(=O)OC[C@H](C)NC(=O)[C@H](N)CC(=O)O | 1.58
29 | CC(CNC(=O)[C@H](N)CC(=O)O)C(=O)OC(C)(C)C (stereo partly drawn) | 0.51
30 | CCC(=O)OCCNC(=O)[C@H](N)CC(=O)O | 0.61
31 | CCCOC(=O)[C@H](CC)NC(=O)[C@H](N)CC(=O)O | 1.86
32 | N[C@H](CC(=O)O)C(=O)N[C@@H](CO)COC(=O)C1CCCC1 | 0.92
33 | CCOC(=O)[C@H](NC(=O)[C@@H](N)CC(=O)O)[C@H](C)O | 1.93
34 | CCCCC[C@@H](NC(=O)[C@H](N)CC(=O)O)C(=O)OC | 1.9
35 | C=C(C)C(=O)OC[C@H](C)NC(=O)[C@H](N)CC(=O)O | 1.99
36 | CCC(CC)OC(=O)[C@@H](NC(=O)[C@H](N)CC(=O)O)C(=O)OC (stereo in doubt; 198) | 2.79
37 | CC[C@@H](COC(=O)C1CC1)NC(=O)[C@H](N)CC(=O)O | 1.38
38 | CCCC(=O)OC[C@@H](NC(=O)[C@H](N)CC(=O)O)C(C)C | 0.4
39 | CC(=O)OCCNC(=O)[C@H](N)CC(=O)O | 0.28
40 | N[C@H](CC(=O)O)C(=O)NCCC1CCCCC1 | 0.85
41 | CCCC(=O)OC[C@@H](NC(=O)[C@H](N)CC(=O)O)C(=O)OC | 1.43
42 | CCOC(=O)[C@H](NC(=O)[C@@H](N)CC(=O)O)[C@@H](C)O | 0.66
43 | COC(=O)[C@@H](COC(=O)C(C)C)NC(=O)[C@H](N)CC(=O)O | 1.65
44 | CC(C)CC(=O)OC[C@H](CO)NC(=O)[C@H](N)CC(=O)O | 1.3
45 | CC(Cc1ccccc1)NC(=O)[C@H](N)CC(=O)O (stereo partly drawn) | 1.56
46 | CCCC[C@H](C)NC(=O)[C@H](N)CC(=O)O | 1.6

Row | Structure (SMILES) | Log SP
47 | CC(C)OC(=O)[C@H](CO)NC(=O)[C@H](N)CC(=O)O | 1.96
48 | COC(=O)[C@@H](COC(C)=O)NC(=O)[C@H](N)CC(=O)O | 0.91
49 | COC(=O)[C@H](Cc1ccccc1)NC(=O)[C@@H](N)CC(=O)O | 2.11
50 | CCCCOC(=O)[C@H](CO)NC(=O)[C@H](N)CC(=O)O | 1.75
51 | CC(C)OC(=O)[C@H](NC(=O)[C@@H](N)CC(=O)O)[C@H](C)O | 0.91
52 | C[C@H](O)[C@@H](NC(=O)[C@@H](N)CC(=O)O)C(=O)OC1CCCCC1 | 1.31
53 | CC[C@@H](COC(C)=O)NC(=O)[C@H](N)CC(=O)O | 1.16
54 | CCC(C)[C@@H](NC(=O)[C@@H](N)CC(=O)O)C(=O)OC(C)C (stereo partly drawn) | 0.53
55 | CC[C@H](NC(=O)[C@H](N)CC(=O)O)C(=O)OC(C)C | 2.15
56 | COC(=O)C(NC(=O)[C@@H](N)CC(=O)O)C(C)c1ccccc1 (stereo partly drawn) | 0.95
57 | CCOC(=O)C[C@H](C)NC(=O)[C@H](N)CC(=O)O (stereo in doubt; 133) | 0.88
58 | COC(=O)CCCNC(=O)[C@H](N)CC(=O)O | 0.13
59 | CC(C)[C@@H](COC(=O)C1CC1)NC(=O)[C@H](N)CC(=O)O | 1.22
60 | C[C@@H](Cc1ccco1)NC(=O)[C@H](N)CC(=O)O | 1.16
61 | N[C@H](CC(=O)O)C(=O)N[C@@H](CO)COC(=O)C1CC1 | 1.96
62 | COC(=O)[C@@H](CSC(C)C)NC(=O)[C@H](N)CC(=O)O | 2.23
63 | CC(C)C(=O)OC[C@H](C)NC(=O)[C@H](N)CC(=O)O | 1.98
64 | COC(=O)[C@@H](CCCNC(C)=O)NC(=O)[C@H](N)CC(=O)O | 0.25
65 | N[C@H](CC(=O)O)C(=O)NCCC(=O)OC1CCCCC1 | 1.22
66 | COC(=O)[C@@H](CSC(C)(C)C)NC(=O)[C@H](N)CC(=O)O | 2.95
67 | COC(=O)C[C@@H](NC(=O)[C@H](N)CC(=O)O)C(=O)OC | 0.6
68 | CCCCC(=O)OC[C@H](C)NC(=O)[C@H](N)CC(=O)O | 0.6
69 | COC(=O)[C@@H](CC1CCCCC1)NC(=O)[C@H](N)CC(=O)O | 2.3

Row | Structure (SMILES) | Log SP
70 | CC(C)OC(=O)[C@H](C)NC(=O)[C@H](N)CC(=O)O | 1.95
71 | CCCOC(=O)[C@H](C)NC(=O)[C@H](N)CC(=O)O | 2.1
72 | COC(=O)[C@H](NC(=O)[C@H](N)CC(=O)O)C(=O)OC1CCCC1 | 2.92
73 | CC(C)OC(=O)C(C)CNC(=O)[C@H](N)CC(=O)O (stereo partly drawn) | 0.18
74 | COC(=O)[C@@H](COC(C)(C)C)NC(=O)[C@H](N)CC(=O)O | 2.15
75 | CCC(C)C(=O)OC[C@H](C)NC(=O)[C@H](N)CC(=O)O (stereo partly drawn) | 2.08
76 | COC(=O)C(NC(=O)[C@@H](N)CC(=O)O)C(=O)OC1CC(C)CC(C)(C)C1 (stereo partly drawn) | 2.76
77 | CC1CC1C(=O)OC[C@H](C)NC(=O)[C@H](N)CC(=O)O (stereo partly drawn) | 1.68
78 | CCC(CC)OC(=O)[C@@H](NC(=O)[C@H](N)CC(=O)O)C(=O)OC (stereo in doubt; 199) | 3.06
79 | C[C@@H](COC(=O)C(C)(C)C)NC(=O)[C@H](N)CC(=O)O | 2.28
80 | CC(C)C(=O)OC[C@H](CO)NC(=O)[C@H](N)CC(=O)O | 1.48
81 | CCCC(C)OC(=O)CCNC(=O)[C@H](N)CC(=O)O (stereo partly drawn) | 0.68
82 | CC(C)(C)OC(=O)CCNC(=O)[C@H](N)CC(=O)O | 0.36
83 | CCCC(=O)OCCNC(=O)[C@H](N)CC(=O)O | 0.56
84 | N[C@H](CC(=O)O)C(=O)NCC(=O)OC1CCCCC1 | 1.02
85 | N[C@H](CC(=O)O)C(=O)NCCOC(=O)C1CCC1 | 0.99
86 | CCCC(O)[C@H](NC(=O)[C@H](N)CC(=O)O)C(=O)OC (stereo in doubt; 57) | 0.75
87 | C[C@@H](COC(=O)C1CCC1)NC(=O)[C@H](N)CC(=O)O | 2.24
88 | CCC(C)OC(=O)C[C@H](C)NC(=O)[C@H](N)CC(=O)O (stereo partly drawn) | 0.6
89 | CCC(=O)OC[C@@H](NC(=O)[C@H](N)CC(=O)O)C(C)C | 1.6
90 | CC1CCC1C(=O)OC[C@H](C)NC(=O)[C@H](N)CC(=O)O (stereo partly drawn) | 2.13
91 | CCOC(=O)C(NC(=O)[C@H](N)CC(=O)O)C(=O)OCC | 1.35
92 | CC(C)CC(=O)OCCNC(=O)[C@H](N)CC(=O)O | 1.36

Row | Structure (SMILES) | Log SP
93 | CCC(CC)OC(=O)CCNC(=O)[C@H](N)CC(=O)O | 0.6
94 | CCCCC[C@H](C)NC(=O)[C@H](N)CC(=O)O (stereo in doubt; 10) | 1.43
95 | CC(C)OC(=O)[C@H](NC(=O)[C@@H](N)CC(=O)O)[C@@H](C)O | 1.93
96 | COC(=O)[C@@H](COC(=O)C(C)(C)C)NC(=O)[C@H](N)CC(=O)O | 1.81
97 | CC[C@H](NC(=O)[C@H](N)CC(=O)O)C(=O)OC | 1.04
98 | COC(=O)CC[C@@H](NC(=O)[C@H](N)CC(=O)O)C(=O)OC | 2
99 | CCC(=O)OC[C@@H](NC(=O)[C@H](N)CC(=O)O)C(=O)OC | 1.53
100 | CC(=O)OC[C@H](CO)NC(=O)[C@H](N)CC(=O)O | 1.23
101 | CC(C)COC(=O)[C@H](NC(=O)[C@@H](N)CC(=O)O)[C@@H](C)O | 1.97
102 | CCCCCC[C@@H](NC(=O)[C@H](N)CC(=O)O)C(=O)OC | 2.07
103 | COC(=O)C(NC(=O)[C@@H](N)CC(=O)O)C(=O)OC1CCCCC1C (stereo in doubt; 202) | 3.92
104 | CC(CNC(=O)[C@H](N)CC(=O)O)C(=O)OC1CCCCC1 (stereo partly drawn) | 0.94
105 | C[C@@H](COC(=O)C1CCCC1)NC(=O)[C@H](N)CC(=O)O | 1.7
106 | CCOC(=O)[C@H](NC(=O)[C@H](N)CC(=O)O)C(=O)OC1CCCC1 | 2.44
107 | COC(=O)[C@@H](CCC(C)C)NC(=O)[C@H](N)CC(=O)O | 2.11
108 | COC(=O)[C@H](NC(=O)[C@H](N)CC(=O)O)C(=O)OC1CCC(C)CC1 (stereo partly drawn) | 1.87
109 | CCC[C@H](NC(=O)[C@H](N)CC(=O)O)C(=O)OC(C)C | 1.43
110 | COC(=O)C[C@H](C)NC(=O)[C@H](N)CC(=O)O | 0.43
111 | CCCCOC(=O)[C@H](NC(=O)[C@@H](N)CC(=O)O)[C@@H](C)O | 1.41
112 | CC(C)COC(=O)[C@H](CO)NC(=O)[C@H](N)CC(=O)O | 2.21
113 | COC(=O)C(NC(=O)[C@@H](N)CC(=O)O)C(=O)OC1CCCC(C)C1 (stereo partly drawn) | 3.02
